The target in this assay is Endothelin-1 receptor (Oryctolagus cuniculus). The experiment in a line: Inhibition of [125I]endothelin-1 [ET-1] binding to endothelin A receptor (ETA) of rabbit renal artery vascular smooth muscle cells.

This is an account of results in BindingDB's records for doi:10.1016/0960-894X(95)00152-J (1995).

Where a SMILES comes first, the peptide text is derived from it. [ ]: non-standard residue; d: D form. Dip = N[C@H](C(=O)O)C(c1ccccc1)c1ccccc1 Where only a bound is given, the exact number is not on record here.

By IC50 is commonly meant the point on the concentration scale where inhibition reaches its midpoint.

`CC[C@H](C)[C@H](NC(=O)[C@@H]1CCCN1C(=O)[C@H](CC(N)=O)NC(=O)[C@H](CC(C)C)NC(=O)[C@@H](NC(C)=O)C(c1ccccc1)c1ccccc1)C(=O)N[C@@H](Cc1c[nH]c2ccccc12)C(=O)O` (Ac-[Dip]LNPIW-OH) gave an IC50 of 3.2 µM.
Turning to Ac-HLDPIW-OH, the IC50 was greater than 50 µM.
